Test systems include HCT-116 colon; COLO 205 colon; HL-60(TB) leukemia; HCT-15 colon; A549 NSCLC; PC-3 prostate; MDA-MB-231 breast; NCI/ADR-RES ovarian.
Common to all, as to assay: NCI tumour cell line growth inhibition, 48 h

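Tested at 5 concentrations; 48 h exposure; 96-well plates; endpoints linearly interpolated, else capped at highest concentration. GI50: concentration for 50% inhibition of growth. TGI is the concentration that stops growth completely.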

Turning to `CC(C)c1[nH]nc2c(NCc3ccc(-c4ccccn4)cc3)nc(SCCN(C)C)nc12`, the GI50 in the test with HCT-116 colon was 0.0357 µM; in the test with COLO 205 colon it was less than 0.015 µM; in the test on HL-60(TB) leukemia it was less than 0.0156 µM; in the test on HCT-15 colon, 0.0872 µM; with PC-3 prostate, 0.0313 µM; with MDA-MB-231 breast, 0.0257 µM. Besides, in the test on NCI/ADR-RES ovarian, the GI50 is 0.13 µM. The TGI worked out at 10.8 µM in the test on HCT-116 colon; 0.0297 µM with COLO 205 colon; 0.0313 µM with HL-60(TB) leukemia; 10.9 µM with HCT-15 colon; 13 µM in the test on A549 NSCLC; 3.81 µM with PC-3 prostate. For the same molecule, the results for the TGI in the test with MDA-MB-231 breast and in the test on NCI/ADR-RES ovarian were 8.3 µM and 11.4 µM, respectively.

With `O=C(NCCCl)Nc1ccccc1`, the TGI with HCT-116 colon, with COLO 205 colon, in the test with HL-60(TB) leukemia, with HCT-15 colon, in the test on A549 NSCLC and with PC-3 prostate was more than 100 µM throughout. Also, the TGI in the test on MDA-MB-231 breast and with NCI/ADR-RES ovarian was more than 100 µM each time.

As for `OC(CN1CCCC2CCCCC21)c1cc2ccccc2c2ccccc12` (centres undefined), the GI50 in the test with HCT-116 colon was 1.29 µM; in the test with COLO 205 colon, 1.45 µM; with HL-60(TB) leukemia, 2.02 µM; with HCT-15 colon, 2.15 µM; in the test with A549 NSCLC it was 4.65 µM; in the test with PC-3 prostate, 2.27 µM. The results for the GI50 with MDA-MB-231 breast and in the test on NCI/ADR-RES ovarian were 1.69 µM and 2.07 µM, respectively. Further, the TGI was determined as 2.56 µM with HCT-116 colon; 2.9 µM in the test with COLO 205 colon; 3.76 µM with HL-60(TB) leukemia; 9.23 µM in the test with HCT-15 colon; 19.1 µM with A549 NSCLC; 10.1 µM in the test with PC-3 prostate. The TGI in the test on MDA-MB-231 breast is 4.06 µM; in the test with NCI/ADR-RES ovarian, 5.19 µM.

For `Cc1cc2c3c([n+](C)c4ccc(F)cc4c3c1)-c1cc(F)ccc1N2C`, the GI50 in the test with HCT-116 colon was 19.9 µM; in the test with COLO 205 colon, 3.5 µM; with HL-60(TB) leukemia, 25.4 µM; with HCT-15 colon it was more than 100 µM; with A549 NSCLC, 43.5 µM; with PC-3 prostate, 19.9 µM. The GI50 with MDA-MB-231 breast is 24.3 µM; in the test with NCI/ADR-RES ovarian, more than 100 µM. In addition, the TGI in the test on HCT-116 colon was more than 100 µM; in the test on COLO 205 colon, 16.3 µM; in the test on HL-60(TB) leukemia, more than 100 µM; in the test with HCT-15 colon, more than 100 µM; with A549 NSCLC, more than 100 µM; in the test on PC-3 prostate, 77.7 µM. Besides, the TGI is 85.3 µM in the test with MDA-MB-231 breast and more than 100 µM in the test on NCI/ADR-RES ovarian.

As for `COc1cc2c3c(n(CCN4CCOCC4)c(=O)c2cc1OC)-c1ccccc1C3=O`, the GI50 with HCT-116 colon is 59.7 µM; with COLO 205 colon it was more than 100 µM; with HL-60(TB) leukemia, 35.7 µM; with HCT-15 colon, more than 100 µM; with A549 NSCLC it was more than 100 µM; in the test with PC-3 prostate, more than 100 µM. The GI50 in the test with MDA-MB-231 breast and in the test with NCI/ADR-RES ovarian was more than 100 µM in each case. Moreover, the TGI in the test with HCT-116 colon, in the test on COLO 205 colon, in the test with HL-60(TB) leukemia, in the test with HCT-15 colon, with A549 NSCLC and in the test with PC-3 prostate was more than 100 µM each time. Further, the TGI in the test on MDA-MB-231 breast and in the test on NCI/ADR-RES ovarian was more than 100 µM in each case.

Regarding `Cc1c(Cl)cccc1NC(=O)c1sc2nc3c(cc2c1N)C(=O)CCC3`, the GI50 in the test on HCT-116 colon is 0.0644 µM; in the test with COLO 205 colon, 0.05 µM; in the test with HL-60(TB) leukemia it was 0.081 µM; in the test on HCT-15 colon, 0.0665 µM; with A549 NSCLC it was 0.0619 µM; in the test with PC-3 prostate, 0.0517 µM. The GI50 was 0.138 µM in the test on MDA-MB-231 breast and 0.0463 µM in the test on NCI/ADR-RES ovarian. The TGI in the test with HCT-116 colon is more than 100 µM; with COLO 205 colon, 0.344 µM; in the test on HL-60(TB) leukemia, 0.769 µM; with HCT-15 colon it was more than 100 µM; in the test with A549 NSCLC, more than 100 µM; in the test on PC-3 prostate, more than 52.2 µM. Besides, the TGI in the test with MDA-MB-231 breast turned out to be 16.5 µM; in the test on NCI/ADR-RES ovarian it was 12.9 µM.

With `COC(=O)c1ccc(NC(=O)c2ccc(NC3=C(Cl)C(=O)N(Cc4ccccc4)C3=O)cc2)cc1`, the GI50 in the test with HCT-116 colon is 3.47 µM; in the test with COLO 205 colon it was 37 µM; in the test on HL-60(TB) leukemia, 12.8 µM; in the test on HCT-15 colon, 14.6 µM; with A549 NSCLC, 15.8 µM; in the test on PC-3 prostate, 13.7 µM. For the same molecule, the GI50 with MDA-MB-231 breast was 19.7 µM; with NCI/ADR-RES ovarian, 14 µM. Also, the TGI was 11.8 µM in the test on HCT-116 colon; more than 100 µM in the test on COLO 205 colon; 25.4 µM with HL-60(TB) leukemia; 27.7 µM in the test on HCT-15 colon; 29.2 µM with A549 NSCLC; 26.6 µM in the test with PC-3 prostate. The TGI was 34.7 µM in the test on MDA-MB-231 breast and 27 µM in the test on NCI/ADR-RES ovarian.

With `Cc1ccc(N=Nc2c(O)ccc3n[nH]nc23)cc1`, the GI50 in the test with HCT-116 colon was 12.5 µM; with COLO 205 colon, 22.4 µM; with HL-60(TB) leukemia it was 7.32 µM; with HCT-15 colon it was 12.3 µM; with A549 NSCLC it was 14.2 µM; in the test with PC-3 prostate it was 5.99 µM. For the same molecule, the GI50 was 13 µM in the test with MDA-MB-231 breast and 10.2 µM in the test on NCI/ADR-RES ovarian. For the same molecule, the TGI in the test on HCT-116 colon was more than 100 µM; in the test with COLO 205 colon, 73.9 µM; in the test on HL-60(TB) leukemia it was 57.8 µM; in the test on HCT-15 colon it was 92.4 µM; in the test with A549 NSCLC, more than 100 µM; in the test on PC-3 prostate, more than 100 µM. In addition, the TGI is more than 100 µM in the test on MDA-MB-231 breast and 73.2 µM in the test on NCI/ADR-RES ovarian.

The values are drawn from PubChem BioAssay (NCI).
